Our source for the IC50 and EC50 values is USRE47428E1, “Modulators of methyl modifying enzymes, compositions and uses thereof” (Constellation Pharmaceuticals, Inc., priority 2013, dated 2019).

The target in assay [1] is EZH2 (Homo sapiens, UniProt Q15910). The assay is described as follows: EZH2 assay: rPRC2 methyltransferase, 3H SAM FlashPlate. Type of assay: biochemical. Conditions: 0.2 μM 3H SAM, 2 nM EZH2. On the procedure: (§1) Assays were carried out by mixing rPRC2 together with biotinylated oligonucleosome substrates in the presence of the radio-labeled enzyme co-factor, S-adenosyl-L-methionine (^3H SAM) (Perkin Elmer) and monitoring the enzymatically mediated transfer of tritiated methyl groups from ^3H SAM to histone lysine residues. The amount of resulting tritiated methyl histone product was measured by first capturing the biotinylated oligonucleosomes in streptavidin (SAV) coated FlashPlates (Perkin Elmer), followed by a wash step to remove un-reacted ^3H SAM, and then counting on a TopCount NXT 384 well plate scintillation counter (Perkin Elmer). The final assay conditions for EZH2 were as follows: 50 mM Tris Buffer pH 8.5, 1 mM DTT, 69 μM Brij-35 detergent, 5.0 mM MgCl2, 0.1 mg/mL BSA, 0.2 μM ^3H SAM, 0.2 μM biotinylated oligonucleosomes, 3.6 μM H3K27me3 peptide and 2 nM EZH2.
EZH2, sequence (Q15910 whole entry): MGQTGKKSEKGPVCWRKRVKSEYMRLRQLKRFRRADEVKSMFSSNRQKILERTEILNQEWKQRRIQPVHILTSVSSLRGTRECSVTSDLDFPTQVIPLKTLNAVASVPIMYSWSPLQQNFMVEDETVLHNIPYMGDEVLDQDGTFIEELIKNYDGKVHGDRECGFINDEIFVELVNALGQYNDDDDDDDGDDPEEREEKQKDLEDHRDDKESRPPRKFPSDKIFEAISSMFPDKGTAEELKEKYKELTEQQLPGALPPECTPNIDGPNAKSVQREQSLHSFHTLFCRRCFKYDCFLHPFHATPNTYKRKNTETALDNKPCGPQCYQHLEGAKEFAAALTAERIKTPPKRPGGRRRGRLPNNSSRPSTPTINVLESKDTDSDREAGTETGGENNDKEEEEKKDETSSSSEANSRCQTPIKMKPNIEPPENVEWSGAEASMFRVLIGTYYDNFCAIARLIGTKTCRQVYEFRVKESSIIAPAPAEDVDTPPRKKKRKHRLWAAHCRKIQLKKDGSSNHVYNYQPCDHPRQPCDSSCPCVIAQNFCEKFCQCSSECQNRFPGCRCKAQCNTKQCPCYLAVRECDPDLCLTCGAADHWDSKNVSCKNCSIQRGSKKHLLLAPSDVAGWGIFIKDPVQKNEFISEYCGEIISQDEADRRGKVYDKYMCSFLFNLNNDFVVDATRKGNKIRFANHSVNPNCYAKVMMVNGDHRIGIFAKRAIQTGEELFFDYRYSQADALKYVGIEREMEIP
EZH2, sequence (O75530 whole entry partner): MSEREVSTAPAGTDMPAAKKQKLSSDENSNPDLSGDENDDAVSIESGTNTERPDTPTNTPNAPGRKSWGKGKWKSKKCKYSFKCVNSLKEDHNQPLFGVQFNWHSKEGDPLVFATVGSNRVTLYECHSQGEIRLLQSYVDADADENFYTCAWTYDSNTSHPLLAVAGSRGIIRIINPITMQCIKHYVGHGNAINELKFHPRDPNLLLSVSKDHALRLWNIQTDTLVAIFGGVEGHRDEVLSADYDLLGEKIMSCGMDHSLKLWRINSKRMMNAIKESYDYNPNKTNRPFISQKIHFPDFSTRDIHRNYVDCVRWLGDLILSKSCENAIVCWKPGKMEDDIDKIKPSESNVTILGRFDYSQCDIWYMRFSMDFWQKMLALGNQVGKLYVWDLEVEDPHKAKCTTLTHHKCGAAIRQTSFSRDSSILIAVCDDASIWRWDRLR
EZH2, sequence (Q15022 whole entry partner): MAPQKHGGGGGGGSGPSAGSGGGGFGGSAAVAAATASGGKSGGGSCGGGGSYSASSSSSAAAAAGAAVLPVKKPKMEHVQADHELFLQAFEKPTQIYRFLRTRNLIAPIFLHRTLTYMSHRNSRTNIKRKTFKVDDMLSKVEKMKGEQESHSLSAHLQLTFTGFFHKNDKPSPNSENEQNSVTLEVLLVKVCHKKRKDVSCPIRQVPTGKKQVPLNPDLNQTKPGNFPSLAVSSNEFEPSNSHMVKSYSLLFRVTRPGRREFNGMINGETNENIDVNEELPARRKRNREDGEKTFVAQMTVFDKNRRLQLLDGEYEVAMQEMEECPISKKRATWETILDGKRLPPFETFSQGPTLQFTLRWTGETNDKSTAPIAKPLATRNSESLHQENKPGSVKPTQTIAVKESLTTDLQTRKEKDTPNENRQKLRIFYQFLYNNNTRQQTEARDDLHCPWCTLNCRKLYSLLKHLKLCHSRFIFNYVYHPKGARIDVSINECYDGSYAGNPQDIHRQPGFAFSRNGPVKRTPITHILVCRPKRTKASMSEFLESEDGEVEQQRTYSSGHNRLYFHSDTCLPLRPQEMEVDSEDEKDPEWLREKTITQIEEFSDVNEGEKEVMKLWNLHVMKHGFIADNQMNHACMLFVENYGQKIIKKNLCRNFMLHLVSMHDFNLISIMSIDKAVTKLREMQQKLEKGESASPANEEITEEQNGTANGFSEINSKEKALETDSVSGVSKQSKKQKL
(§2) A 12.5 μL volume of the HMT enzyme, H3K27me3 peptide and oligonucleosome substrate in assay buffer was added to each well of the assay plate using a Multidrop Combi (Thermo-Fisher). Compounds were pre-incubated with the enzyme for 20 min, followed by initiation of the methyltransferase reaction by addition of 12.5 μL of ^3H SAM in assay buffer (final volume=25 μL). The final concentrations of compounds ranged from a top default concentration of 80 μM down to 0.16 μM in ten 2-fold dilution steps. Reactions were carried out for 60 minutes and quenched with 20 μL per well of 1.96 mM SAH, 50 mM Tris pH 8.5, 200 mM EDTA. Stopped reactions were transferred to SAV coated Flash-plates (Perkin Elmer), incubated for 120 min, washed with a plate washer, and then read on the TopCount NXT (1.0 min/well) to measure the amount of methyl histone product formed during the reaction.

For assay [2], the target named is Y641N EZH2 (Homo sapiens, UniProt Q15910, Y641N). The assay is described as follows: Y641N EZH2 assay, H3K27Me2 oligonucleosomes as substrate. The format is biochemical. As for the experimental part:
as §1, §2

Assay [3] concerns H3K27me3 mark in HeLa cells. The assay is described as follows: H3K27me3 Alpha Hela Assay (AlphaLISA). The format is cell-based. Conditions: 72 hrs incubation. As for the experimental part: H3K27me3 Alpha Hela Assay (AlphaLISA).
Ten different doses of each test compound (in a series of 3-fold dilutions) were plated in duplicate 384-well tissue culture treated plates (Catalog #781080; Greiner Bio One; Monroe, N.C.). Hela cells grown in culture were trypsinized and counted using a Countess® cell counter (Catalog #C10281; Life Technologies, Grand Island, N.Y.). Cell were diluted to 67,000 cells per mL in 10% DMEM (Catalog #10569-010 Life Technologies, Grand Island, N.Y.) and 15 μL (1,000 cells) were plated into each well using the Biotek MicroFlo™ Select Dispenser (BioTek Instruments, Inc. Vermont, USA),) of the 384-well plate. Plates were incubated at 37° C./5% CO2 for 72 hrs. One of the duplicate plates was processed for HeLa assay and the other for viability.
To the plate processed for AlphaLISA was added 5 μL per well Cell-Histone Lysis buffer (1×) (Catalog #AL009F1 Perkin Elmer; Waltham, Mass.) and the plate was incubated at RT for 30 minutes on a plate shaker with low speed (Model #4625-Q Thermo Scientific; Waltham, Mass.). Then, 10 μL per well Histone Extraction buffer (catalog #AL009F2; Perkin Elmer; Waltham, Mass.) was added and the plate further incubated at RT for 20 min on plate shaker with low speed. To each well was then added 10 μL per well of a 5× mix of anti-K27me3 acceptor beads plus Biotinylated anti-Histone H3 (C-ter) Antibody (diluted to 3 nM final) (Catalog #AL118 Perkin Elmer; Waltham, Mass.). Dilution of the acceptor beads and then anti-Histone H3 was with 1× Histone Detection buffer (Catalog #AL009F3 Perkin Elmer; Waltham, Mass.) which was produced diluted from the 10× stock provided. The plate was sealed with an aluminum plate sealer and incubated at 23° C. for 60 min. […] The plates were then read using an EnVision-Alpha Reader (model #2104 Perkin Elmer; Waltham, Mass.).
Data from both assays was analyzed using Assay Assistant (Constellation Pharmaceuticals In-house product) and Activity Base (IDBS Ltd, Surrey, UK) template. […] Readout of DMSO wells were used to normalize the data. […]

In assay [4] the test system is H3K27me3 mark in HeLa cells. The assay is described as follows: H3K27me3 MSD Hela Assay. The format is cell-based. As for the experimental part: Trypsinized HeLa cells were counted and diluted in 10% DMEM (Life Technologies, Cat. #10569) to 5000 cells/75 μL. Seventy-five μL of cells were place in each well of a 96-well flat-bottomed plate and incubated at 37° C. for 4 hours. Twenty-five μL of test compound (at various concentrations) was added to the cells and incubation continued at 37° C. for 96 hours. Media was then removed and the cells rinsed once with ice cold PBS. Forty μL of ice-cold MSD Buffer AT (10 mM HEPES, pH 7.9, 5 mM MgCl2, 0.25M sucrose, Benzonase (1:10000), 1% Triton X-100 supplemented with fresh 1× Protease Inhibitor cocktail and 1 mM 4-(2-Aminoethyl)benzenesulfonyl fluoride hydrochloride (AEBSF)) was added to each well and the plates placed on ice for 30 minutes. Ten μL of 5M NaCl was then added to each well and incubation on ice continued for another 15 minutes. The material in each well was suspended pipetting up and down and then transferred to a new 96 well plate. […]
The antibody mix was then removed and the wells washed with Blocker A. One hundred-fifty μL of freshly prepared 1×MSD Read Buffer (Meso-Scale Discovery; Cat #R927C-2) was then added to each well and the plates read on a MSD Sector 2400 Plate Reader.
Data was analyzed using Assay Assistant (Constellation Pharmaceuticals In-house product) and Activity Base (IDBS Ltd, Surrey, UK) template. […] Readout of DMSO wells were used to normalize the data. […]

Like-named read-outs stand apart in the source and are kept apart here.

Y641N EZH2, sequence (Q15910 whole entry Y641N): as the sequence (Q15910 whole entry) above, with Y641N counted along it
Y641N EZH2, sequence (O75530 whole entry partner): as the sequence (O75530 whole entry partner) above
Y641N EZH2, sequence (Q15022 whole entry partner): as the sequence (Q15022 whole entry partner) above

In the case of “(R or S)-1-(1-(4-(isopropylsulfonyl)cyclohexyl)ethyl)-N-((4-methoxy-6-methyl-2-oxo-1,2-dihydropyridin-3-yl)methyl)-2-methyl-1H-indole-3-carboxamide [Compound 355]”, the IC50 was under 100 nM in assay [1] (rPRC2, biotinylated oligonucleosomes, read-out: EZH2 IC50) and under 100 nM in assay [2] (Y641N EZH2 mutant enzyme, H3K27Me2 oligonucleosomes, read-out: Y641N EZH2 IC50). This compound registered a half-maximal effective concentration (EC50) in assay [3] of under 400 nM.

In assay [4], `COc1cc(C)[nH]c(=O)c1CNC(=O)c1c(C)n(C(C)C2CCCNC2)c2ccccc12` (stereo not drawn) [Compound 315] registered a concentration for a half-maximal effect (EC50) of over 10000 nM.

In turn, `CCS(=O)(=O)N1CCC(C(C)n2c(C)c(C(=O)NCc3c(OC)cc(C)[nH]c3=O)c3ccccc32)CC1` (single isomer, unassigned) [Compound 345, (R or S)-1-(1-(1-(ethylsulfonyl)piperidin-4-yl)ethyl)-N-((4-methoxy-6-methyl-2-oxo-1,2-dihydropyridin-3-yl)methyl)-2-methyl-1H-indole-3-carboxamide] had an EC50 in assay [3] (Homo sapiens) of under 400 nM.

Consider `COc1cc(C)[nH]c(=O)c1CNC(=O)c1c(C)n(C(C)C2CCC(F)(F)CC2)c2ccccc12` (racemic) [Compound 304, (±)-1-(1-(4,4-difluorocyclohexyl)ethyl)-N-((4-methoxy-6-methyl-2-oxo-1,2-dihydropyridin-3-yl)methyl)-2-methyl-1H-indole-3-carboxamide], for which the EC50 in assay [4] (Homo sapiens) and in assay [3] (Homo sapiens) was under 400 nM throughout. In addition, the 50% inhibitory concentration (IC50) in assay [1] (EZH2 IC50, rPRC2, biotinylated oligonucleosomes) is under 100 nM; in assay [2] it was under 100 nM.

By IC50 is commonly meant the concentration at which inhibition is half-maximal. As usually defined, the EC50 is the concentration at which the effect is half-maximal. Read a high EC50 as a need for much substance.
